According to BigSolDB 2.1:

CC(N)=S
Settings	solubility (mole fraction)
in 2-butanone, 272.85 K	0.137
in 2-butanone, 279.35 K	0.157
in 2-butanone, 282.55 K	0.167
in 2-butanone, 287.95 K	0.185
in 2-butanone, 293.35 K	0.205
in 2-butanone, 297.85 K	0.223
in 2-butanone, 303.05 K	0.244
in 2-butanone, 308.55 K	0.268
in 2-butanone, 313.15 K	0.289
in 2-butanone, 318.05 K	0.312
in 2-butanone, 323.95 K	0.343
in 2-pentanone, 272.85 K	0.111
in 2-pentanone, 279.35 K	0.127
in 2-pentanone, 282.55 K	0.136
in 2-pentanone, 287.95 K	0.152
in 2-pentanone, 293.35 K	0.169
in 2-pentanone, 297.85 K	0.183
in 2-pentanone, 303.05 K	0.202
in 2-pentanone, 308.55 K	0.222
in 2-pentanone, 313.15 K	0.24
in 2-pentanone, 318.05 K	0.26
in 2-pentanone, 323.95 K	0.286
in acetone, 272.85 K	0.144
in acetone, 279.35 K	0.165
in acetone, 282.55 K	0.176
in acetone, 287.95 K	0.195
in acetone, 293.35 K	0.216
in acetone, 297.85 K	0.234
in acetone, 303.05 K	0.257
in acetone, 308.55 K	0.282
in acetone, 313.15 K	0.304
in acetone, 318.05 K	0.329
in acetone, 323.95 K	0.36
in acetonitrile, 272.85 K	0.0478
in acetonitrile, 279.35 K	0.061
in acetonitrile, 282.55 K	0.0685
in acetonitrile, 287.95 K	0.0828
in acetonitrile, 293.35 K	0.0993
in acetonitrile, 297.85 K	0.115
in acetonitrile, 303.05 K	0.136
in acetonitrile, 308.55 K	0.16
in acetonitrile, 313.15 K	0.184
in acetonitrile, 318.05 K	0.211
in acetonitrile, 323.95 K	0.249
in ethanol, 273.15 K	0.064
in ethanol, 277.95 K	0.0752
in ethanol, 283.45 K	0.0901
in ethanol, 288.25 K	0.105
in ethanol, 293.25 K	0.122
in ethanol, 298.15 K	0.141
in ethanol, 302.35 K	0.159
in ethanol, 308.05 K	0.186
in ethanol, 313.35 K	0.214
in ethanol, 318.25 K	0.243
in ethanol, 323.15 K	0.274
in ethyl acetate, 272.85 K	0.0646
in ethyl acetate, 279.35 K	0.0773
in ethyl acetate, 282.55 K	0.0843
in ethyl acetate, 287.95 K	0.0969
in ethyl acetate, 293.35 K	0.111
in ethyl acetate, 297.85 K	0.124
in ethyl acetate, 303.05 K	0.14
in ethyl acetate, 308.55 K	0.158
in ethyl acetate, 313.15 K	0.175
in ethyl acetate, 318.05 K	0.194
in ethyl acetate, 323.95 K	0.219
in ethyl formate, 272.85 K	0.0427
in ethyl formate, 279.35 K	0.0536
in ethyl formate, 282.55 K	0.0596
in ethyl formate, 287.95 K	0.0711
in ethyl formate, 293.35 K	0.0843
in ethyl formate, 297.85 K	0.0965
in ethyl formate, 303.05 K	0.113
in ethyl formate, 308.55 K	0.131
in ethyl formate, 313.15 K	0.149
in ethyl formate, 318.05 K	0.17
in ethyl formate, 323.95 K	0.198
in isobutanol, 273.15 K	0.0323
in isobutanol, 277.95 K	0.0401
in isobutanol, 283.45 K	0.0508
in isobutanol, 288.25 K	0.0621
in isobutanol, 293.25 K	0.0761
in isobutanol, 298.15 K	0.0922
in isobutanol, 302.35 K	0.108
in isobutanol, 308.05 K	0.133
in isobutanol, 313.35 K	0.16
in isobutanol, 318.25 K	0.189
in isobutanol, 323.15 K	0.223
in isopentanol, 273.15 K	0.0333
in isopentanol, 277.95 K	0.0415
in isopentanol, 283.45 K	0.0528
in isopentanol, 288.25 K	0.0648
in isopentanol, 293.25 K	0.0796
in isopentanol, 298.15 K	0.0968
in isopentanol, 302.35 K	0.114
in isopentanol, 308.05 K	0.141
in isopentanol, 313.35 K	0.171
in isopentanol, 318.25 K	0.203
in isopentanol, 323.15 K	0.239
in isopropanol, 273.15 K	0.0439
in isopropanol, 277.95 K	0.0532
in isopropanol, 283.45 K	0.066
in isopropanol, 288.25 K	0.0792
in isopropanol, 293.25 K	0.0949
in isopropanol, 298.15 K	0.113
in isopropanol, 302.35 K	0.13
in isopropanol, 308.05 K	0.158
in isopropanol, 313.35 K	0.186
in isopropanol, 318.25 K	0.216
in isopropanol, 323.15 K	0.251
in methanol, 273.15 K	0.0894
in methanol, 277.95 K	0.104
in methanol, 283.45 K	0.123
in methanol, 288.25 K	0.141
in methanol, 293.25 K	0.163
in methanol, 298.15 K	0.186
in methanol, 302.35 K	0.208
in methanol, 308.05 K	0.241
in methanol, 313.35 K	0.275
in methanol, 318.25 K	0.31
in methanol, 323.15 K	0.348
in methyl acetate, 272.85 K	0.0603
in methyl acetate, 279.35 K	0.074
in methyl acetate, 282.55 K	0.0815
in methyl acetate, 287.95 K	0.0957
in methyl acetate, 293.35 K	0.112
in methyl acetate, 297.85 K	0.126
in methyl acetate, 303.05 K	0.145
in methyl acetate, 308.55 K	0.167
in methyl acetate, 313.15 K	0.187
in methyl acetate, 318.05 K	0.211
in methyl acetate, 323.95 K	0.242
in n-butanol, 273.15 K	0.0417
in n-butanol, 277.95 K	0.0524
in n-butanol, 283.45 K	0.0674
in n-butanol, 288.25 K	0.0833
in n-butanol, 293.25 K	0.103
in n-butanol, 298.15 K	0.126
in n-butanol, 302.35 K	0.149
in n-butanol, 308.05 K	0.186
in n-butanol, 313.35 K	0.227
in n-butanol, 318.25 K	0.271
in n-butanol, 323.15 K	0.321
in n-pentanol, 273.15 K	0.0507
in n-pentanol, 277.95 K	0.0598
in n-pentanol, 283.45 K	0.0716
in n-pentanol, 288.25 K	0.0835
in n-pentanol, 293.25 K	0.0975
in n-pentanol, 298.15 K	0.113
in n-pentanol, 302.35 K	0.127
in n-pentanol, 308.05 K	0.149
in n-pentanol, 313.35 K	0.172
in n-pentanol, 318.25 K	0.196
in n-pentanol, 323.15 K	0.222
in n-propanol, 273.15 K	0.0503
in n-propanol, 277.95 K	0.0608
in n-propanol, 283.45 K	0.0748
in n-propanol, 288.25 K	0.0891
in n-propanol, 293.25 K	0.106
in n-propanol, 298.15 K	0.126
in n-propanol, 302.35 K	0.144
in n-propanol, 308.05 K	0.173
in n-propanol, 313.35 K	0.203
in n-propanol, 318.25 K	0.236
in n-propanol, 323.15 K	0.272
